Calls of active or inactive are those of the source. No rule for the calls is given here.

What is called Kd is the constant that tells how readily two partners part at equilibrium.

This assay deals with Peptidyl-prolyl cis-trans isomerase FKBP1A (Homo sapiens) (UniProt P62942). Kind of assay: small-molecule binding to FKBP12 – biophysical, NMR detection (AID 608). The note with it: purified FKBP12.
Peptidyl-prolyl cis-trans isomerase FKBP1A (Homo sapiens), sequence (P62942 whole entry, looked up): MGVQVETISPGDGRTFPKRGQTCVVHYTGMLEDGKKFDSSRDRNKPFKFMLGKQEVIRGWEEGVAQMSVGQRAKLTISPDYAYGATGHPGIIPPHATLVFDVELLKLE
For `NC(=O)Cn1nnc(-c2ccc(C(F)(F)F)cc2)n1`, the Kd was > 4 mM (inactive). In the case of `N#Cc1cn(CC(=O)N2CCCC2)c2ccccc12` it was > 4 mM (inactive). In the case of `NC(=O)CCn1cnc2ccccc21` it was > 4 mM (inactive). On to `COc1nc(-c2ccccc2)ccc1-c1noc(C)n1`, for which the Kd was > 4 mM (inactive). In the case of `O=C(O)C1CSC(c2ccco2)N1` (stereo not drawn), the Kd is > 4 mM (inactive). In the case of `CN(C)C(=S)Nc1ccccc1N1CCOCC1` it was > 4 mM (inactive); in that of `COc1cc2nc[nH]c(=O)c2cc1OC`, > 4 mM (inactive); in that of `O=c1cnnc(NCc2ccc(F)cc2)[nH]1`, > 4 mM (inactive).

`C=CCCCCCCCCCCCC(O)CC(O)COC(C)=O` (stereo not drawn) (tested in a mixture with another compound): the Kd is > 4 mM (inactive).

For `O=C(Nc1ccccc1)C(=O)NC1CC1`, the Kd is > 4 mM (inactive). For the compound `CC(CCC(=O)O)[C@H]1CCC2C3CC[C@@H]4CCCC[C@]4(C)C3CC[C@@]21C` (stereo partly drawn), the Kd was > 4 mM (inactive). In the case of `CC(=O)Nc1cc(C(N)=O)cc(C(N)=O)c1` it was > 4 mM (inactive).

For `NC(=O)c1ccc(-c2csnn2)cc1`, the Kd was > 4 mM (inactive). For `NS(=O)(=O)c1ccccc1Cl` the value was > 4 mM (inactive). For `C=C[C@@](C)(O)CCC1C(=C)CCC2[C@@](C)(CO)CCC[C@]12C` (stereo partly drawn) the value was > 4 mM (inactive); for `O=C(O)CC1C(=O)NCCN1Cc1ccccc1` (stereo not drawn), > 4 mM (inactive). For `O=c1n(-c2cccc(Cl)c2)c(=O)n2n1CCC2` the value was > 4 mM (inactive); for `COc1ccc(-c2nc(N)n(C(C)=O)n2)cc1`, > 4 mM (inactive). For the compound `COc1ccc(C2CC(=O)NN2)cc1OC1CCCC1` (stereo not drawn), the Kd was > 4 mM (inactive). `CN1C(=O)Cc2cc(S(N)(=O)=O)ccc21`: the Kd was > 4 mM (inactive). For `O=C(c1sc2cccc(Cl)c2c1Cl)N1CCOCC1` the value was “inactive”. In the case of `Cc1cccnc1NC1=NCC(C)S1` (stereo not drawn) it was > 4 mM (inactive); in that of `CCOc1ccc(C(=O)c2ccncc2)cc1`, > 4 mM (inactive); in that of `CC(=O)CC(=O)N1C(O)CC[N+]1(C)C` (stereo not drawn), > 4 mM (inactive). In the case of `CCCC(=O)N1CCSCC1`, the Kd is > 4 mM (inactive). For `Nc1ncnc2c1ncn2CCOc1ccccc1` the value was > 4 mM (inactive); for `Nc1cccc(F)c1-c1ncon1`, > 4 mM (inactive); for `Cc1[nH]c2ccccc2c1C=Nn1cncn1`, > 4 mM (inactive).

Regarding `CCOC(=O)c1ccc(Oc2ccc(C)nn2)cc1`, the Kd is > 4 mM (inactive).

For `Cc1ccc(C(=O)N2CCOCC2)cc1Cl`, the Kd was > 4 mM (inactive). In the case of `CC(C)(C(N)=O)/[N+]([O-])=C\c1ccccc1` it was > 4 mM (inactive); in that of `OCC(O)C(O)C(O)CO` (stereo not drawn), > 4 mM (inactive).

As for `O=S(=O)(Nc1cccc2cn[nH]c12)c1ccc(F)cc1`, the Kd is > 4 mM (inactive). In the case of `CC1=NNC(=O)C1CCc1ccncc1` (stereo not drawn) it was > 4 mM (inactive). In the case of `Cc1ccccc1NC(=O)CC1NCCNC1=O` (stereo not drawn) it was > 4 mM (inactive); in that of `CC(=O)Nc1cc2c(cc1C(=O)C(C)C)OCCO2`, > 4 mM (inactive). In the case of `CS(=O)(=O)c1ccccc1C(=O)Nc1nccs1` it was > 4 mM (inactive); in that of `Cc1ccc(/C=N/n2c(C)nnc2C)cc1`, > 4 mM (inactive); in that of `COc1cc(C(C)=O)ccc1OC(=O)N1CCOCC1`, > 4 mM (inactive). For the compound `Cc1nc2nc(COc3ccccc3)nn2c(C)c1Cl`, the Kd is > 4 mM (inactive). In the case of `NCC(O)c1ccc(O)cc1` (stereo not drawn) it was > 4 mM (inactive); in that of `NC1=NC(=O)/C(=C\c2cccc(C(=O)O)c2)S1`, > 4 mM (inactive). As to `COc1ccccc1NC(=O)CCC(=O)O`, the Kd is > 4 mM (inactive).

The values are drawn from PubChem BioAssay AID608 (Sanford-Burnham Center for Chemical Genomics, 2007).
